The values below are quoted from earlier work in patent US20090118293A1 (priority 2004, published 2009).

Molecules are shown by their SMILES. Counter-ions that a name gives are not always drawn.

With `O=[N+]([O-])O[C@H]1CO[C@H]2[C@@H]1OC[C@H]2O[N+](=O)[O-]` [isosorbide dinitrate, 1,4,3,6-dianhydro-D-glucitol-2,5-dinitrate], the Solubility in water entry is on record as “sparingly soluble”. In addition, the “Solubility in organic solvents” value (organic solvents such as ethanol, ether and chloroform) was “freely soluble”.

Regarding `NNc1nncc2ccccc12` [hydralazine hydrochloride], the Solubility in water entry is “soluble”. The Solubility in alcohol entry (alcohol) is recorded as “slightly soluble”. For the same compound, for the setting “ether”, the Solubility in ether entry is given as “very slightly soluble”.
